Columns and labels:
[1] = system: mice with intrafemoral Lewis lung carcinoma (LLC); assay: Open field test in LLC bone cancer model; assay type: in vivo, mouse; details: d14 after tumor inoculation
Method: Behavior tests. All the behavioral tests were conducted in a blinded manner and performed during between the hours of 9:00-16:00. Animals were habituated in a light and humidity controlled testing environment for at least 2 days prior to baseline testing. For Von Frey testing, mice were confined to individual 5×5 cm boxes placed on an elevated wire grid. A blinded experimenter stimulated their hindpaws using a series of von Frey filaments with logarithmically increasing stiffness (0.02-2.56 g, Stoelting). Each filament was applied perpendicularly to the central plantar surface. The 50% paw withdrawal threshold was determined using Dixon's up-down method. In addition, we also measured paw withdrawal frequency to repeated stimulation (10 times, with ˜1-2 minutes between each stimulation) using a subthreshold 0.16 g von Frey filament, which is a more sensitive method to detect mechanical allodynia. […] To measure locomotor function, we performed open field testing in which mice were placed in the center of a 45×45 cm chamber and locomotor activity was recorded by an overhead webcam connected to a laptop computer, and animals' movements were automatically tracked for 30 minutes using ANY-Maze. The total distance traveled and mean speed during the 30-minute period were analyzed.

IFN-α = IFN-α ELISA on BMDM culture medium; assay type: cell-based, mouse; details: 24 h after incubation
Method: (§1) ELISA. Mouse high-sensitivity IFN-α ELISA kit (42115-1) and IFN-β ELISA kit (42410-1) were purchased from PBL Assay Science. Mouse CTX-I ELISA kit (AC-06F1) and mouse PINP ELISA kit (AC-33F1) were purchased from Immunodiagnostic Systems. ELISA was performed using culture medium, serum, and bone marrow lysates. Serum was obtained from whole blood that was collected from a submandibular vein via facial vein puncture, coagulated for 30 minutes at room temperature, followed by centrifugation (2,000 ×g for 10 min, 4° C.) and collection of the supernatant (serum). Bone marrow was homogenized in a lysis buffer containing protease inhibitors at 4° C. for 30 minutes. ELISA was conducted in accordance with the manufacturer's instructions. A standard curve was performed for each experiment.
In vitro induction of osteoclastogenesis and TRAP staining. For in vitro drug treatment, the RAW 264.7 cells were incubated with 35 ng/ml RANKL for six days. Isolated bone marrow cells were cultured overnight in α-MEM media containing 10% fetal bovine serum and 1% antibiotic-antimycotic solution. The suspended cells were collected and incubated with 20 ng/ml MCSF for 3 days to obtain bone marrow-derived macrophage (BMDM). The attached cells were further activated by 35 ng/ml RANKL and 20 ng/ml MCSF. Drug treatment was performed in tandem with RANKL. Culture medium and co-cultured reagents were changed every 3 days. […]

tumor-bearing femora = assay: Bone fractures of tumor-bearing femora on d17 after LLC inoculation; assay type: in vivo, mouse; details: vehicle 87.5%
Method: Development and progression of cancer-induced osteolytic bone destruction frequently leads to bone fracture, which is an important component of SREs in patients with bone metastasis and is associated with decreased overall survival. On d17 after LLC inoculation, mice were euthanized and the tumor bearing femora were collected and the distal tumor-bearing femur where bone destruction occurs was analyzed.

IFN-β = IFN-β ELISA in serum and bone marrow lysate after i.p. STING agonist, LLC model; assay type: in vivo, mouse; details: for serum IFN-β levels: 4 h after i.p. 20 mg/kg; for IFN-β in bone marrow (BM) lysate: 4 h after i.p., d3
Method: as §1

mice with CIPN = assay: Chemotherapy-induced peripheral neuropathy (CIPN) model established with paclitaxel; assay type: in vivo, mouse; details: i.p., 24 h after the 2nd injection
Method: Mouse pain models: The chemotherapy-induced peripheral neuropathy (CIPN) model of chronic neuropathic pain was established as we have done previously, using 8-10-week-old CD-1 (strain #022, Charles River) mice injected with paclitaxel (2 mg/kg i.p.) every other day, with 4 injections total. The chronic constriction injury (CCI) model of neuropathic pain was also produced using 8-10-week-old CD-1 under isoflurane anesthesia. Briefly, the right sciatic nerve was exposed above the hip and two ligatures (7-0 Prolene) were placed around the nerve 1 mm apart located proximal to the trifurcation. Ligatures were loosely tied until a subtle flick of the ipsilateral hind limb was observed. CD-1 mice were also used to establish the SNI model, which was generated by tightly ligating the tibial and common peroneal nerves followed by transection and removal of a ˜3 mm portion of the nerve. […] All mice were housed and monitored in accordance with AAALAC standards and Duke IACUC guidelines that pertained to each model.
Reflexive-based sensory testing in mice: All behavioral testing in mice was performed in a specialized humidity- and light-controlled mouse behavior facility maintained at 21-24° C., with testing conducted between the hours of 8:00-16:00. […] We determined the 50% paw withdrawal threshold using the up-down method. […]

Row | Structure (SMILES) | open field distance and speed of movement [1] | IFN-α levels in the culture medium (IFN-α) | mice with distal bone fractures (tumor-bearing femora) | serum IFN-β levels (IFN-β) | IFN-β in bone marrow (BM) lysate (IFN-β) | deaths (toxicity with systemic administration) (mice with CIPN)
1 | Nc1ncnc2c1ncn2[C@@H]1O[C@@H]2COP(=O)([S-])O[C@@H]3[C@H](O)[C@@H](COP([O-])(=S)O[C@H]2[C@H]1O)O[C@H]3n1cnc2c(N)ncnc21.[Na+].[Na+] (stereo partly drawn) [ADU-S100, (2′-5′)-[P(R)]-5′-O-[(R)-hydroxymercaptophosphinyl]-P-thioadenylyl-adenosine cyclic dinucleotide] | increased overall distance of movement and increased speed of movement | drastic increase in IFN-α and IFN-β levels | 0% | dramatically upregulated | sharply increased | No mice died
2 | Cc1ccc2c(=O)c3cccc(CC(=O)O)c3oc2c1C [DMXAA, 2-(5,6-dimethyl-9-oxo-9H-xanthen-4-yl)acetic acid] | greater overall distance of movement and increased speed of movement | drastic increase in IFN-α and IFN-β levels | 12.5% | dramatically upregulated | sharply increased | 3 mice
